Assay results reported in PubChem BioAssay (NCI).
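Compound exposure: 48 hours, 5 concentrations, 96-well plates. Here, GI50 denotes the concentration required for 50% inhibition of growth. TGI marks complete inhibition of growth.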

Assays:
Assay in all cases: growth of human tumour cells (NCI), 48 h
RPMI-8226 leukemia = tested on: RPMI-8226 leukemia
HOP-62 NSCLC = tested on: HOP-62 NSCLC
NCI-H23 lung = tested on: NCI-H23 lung
OVCAR-3 ovarian = tested on: OVCAR-3 ovarian
MOLT-4 leukemia = tested on: MOLT-4 leukemia
UACC-257 melanoma = tested on: UACC-257 melanoma
HL-60(TB) leukemia = tested on: HL-60(TB) leukemia
SK-MEL-5 melanoma = tested on: SK-MEL-5 melanoma
MDA-MB-231 breast = tested on: MDA-MB-231 breast
T-47D breast = tested on: T-47D breast

Cc1nc2c(sc(=S)n2-c2ccccc2)c2nc3ccccc3n12
TGI (RPMI-8226 leukemia): > 100 µM | TGI (HOP-62 NSCLC): > 100 µM | TGI (NCI-H23 lung): > 100 µM | TGI (OVCAR-3 ovarian): > 100 µM | TGI (MOLT-4 leukemia): > 100 µM | TGI (UACC-257 melanoma): > 100 µM | TGI (HL-60(TB) leukemia): > 100 µM

O=C(NCC(=O)N1CCOC1=O)OCc1ccccc1
TGI (SK-MEL-5 melanoma): > 100 µM | TGI (RPMI-8226 leukemia): > 100 µM | TGI (HOP-62 NSCLC): > 100 µM | TGI (NCI-H23 lung): > 100 µM | TGI (OVCAR-3 ovarian): > 100 µM | TGI (MOLT-4 leukemia): > 100 µM | TGI (UACC-257 melanoma): > 100 µM | TGI (HL-60(TB) leukemia): > 100 µM

Cc1cc(C)nc(NS(=O)(=O)c2ccc(NC(=O)c3cccn4c(=O)c5ccccc5nc34)cc2)n1
TGI (SK-MEL-5 melanoma): > 100 µM | TGI (HOP-62 NSCLC): > 100 µM | TGI (NCI-H23 lung): > 100 µM | TGI (MOLT-4 leukemia): > 100 µM | TGI (HL-60(TB) leukemia): 44.1 µM

CCCCCCCCCCCCCP(=O)(NCC(N)=O)OCC (configuration not stated)
TGI (SK-MEL-5 melanoma): 35.3 µM | TGI (HOP-62 NSCLC): 32 µM | TGI (NCI-H23 lung): 44 µM | TGI (OVCAR-3 ovarian): 28.9 µM | TGI (UACC-257 melanoma): 36.1 µM | TGI (HL-60(TB) leukemia): 38.2 µM

COCCOCOC(C)(C)[C@H](CCOC(C)=O)O[Si](c1ccccc1)(c1ccccc1)C(C)(C)C
TGI (SK-MEL-5 melanoma): 23.7 µM | TGI (RPMI-8226 leukemia): 15.1 µM | TGI (HOP-62 NSCLC): 66.7 µM | TGI (NCI-H23 lung): 80 µM | TGI (OVCAR-3 ovarian): 53.6 µM | TGI (MOLT-4 leukemia): 19.1 µM | TGI (UACC-257 melanoma): 31.1 µM | TGI (HL-60(TB) leukemia): 10.4 µM

CC1(C)CC2=C(Sc3ccccc3N2)C(=O)C1C(=O)C(=O)Nc1cc(Cl)ccc1Cl (configuration not stated)
TGI (SK-MEL-5 melanoma): > 100 µM | TGI (MDA-MB-231 breast): > 100 µM | TGI (RPMI-8226 leukemia): > 100 µM | TGI (NCI-H23 lung): > 100 µM | TGI (OVCAR-3 ovarian): > 100 µM | TGI (MOLT-4 leukemia): > 100 µM | TGI (UACC-257 melanoma): > 100 µM | TGI (T-47D breast): > 100 µM | TGI (HL-60(TB) leukemia): > 100 µM

COc1cc(/C=C\c2ccncc2)cc(OC)c1OC
TGI (SK-MEL-5 melanoma): > 100 µM | TGI (RPMI-8226 leukemia): > 100 µM | TGI (HOP-62 NSCLC): > 100 µM | TGI (OVCAR-3 ovarian): > 100 µM | TGI (MOLT-4 leukemia): > 100 µM | TGI (UACC-257 melanoma): > 100 µM | TGI (HL-60(TB) leukemia): > 100 µM

CCC[CH2][Sn]([CH2]CCC)([O]C(=O)/C=C/c1ccccc1F)[O]C(=O)/C=C/c1ccccc1F
GI50 (SK-MEL-5 melanoma): 0.985 µM | TGI (SK-MEL-5 melanoma): 2.31 µM | GI50 (RPMI-8226 leukemia): 0.222 µM | TGI (RPMI-8226 leukemia): 1.2 µM | GI50 (HOP-62 NSCLC): 2.12 µM | TGI (HOP-62 NSCLC): 4.71 µM | GI50 (NCI-H23 lung): 0.198 µM | TGI (NCI-H23 lung): 0.56 µM | GI50 (OVCAR-3 ovarian): 1.07 µM | TGI (OVCAR-3 ovarian): 2.31 µM | GI50 (MOLT-4 leukemia): 0.267 µM | TGI (MOLT-4 leukemia): 1.71 µM | GI50 (UACC-257 melanoma): 0.465 µM | TGI (UACC-257 melanoma): 1.76 µM | GI50 (HL-60(TB) leukemia): 0.536 µM | TGI (HL-60(TB) leukemia): 4.87 µM

O=C1c2ccccc2C(=O)N1C1(C(=O)NC2(C(=O)O)CCCC2)CCCC1
TGI (SK-MEL-5 melanoma): > 100 µM | TGI (MDA-MB-231 breast): > 100 µM | TGI (RPMI-8226 leukemia): > 100 µM | TGI (HOP-62 NSCLC): > 100 µM | TGI (NCI-H23 lung): > 100 µM | TGI (OVCAR-3 ovarian): > 100 µM | TGI (MOLT-4 leukemia): > 100 µM | TGI (UACC-257 melanoma): > 100 µM | TGI (T-47D breast): > 100 µM

COC(=O)/C(C#N)=C1\CCc2ccccc21
TGI (SK-MEL-5 melanoma): > 100 µM | TGI (RPMI-8226 leukemia): > 100 µM | TGI (NCI-H23 lung): > 100 µM | TGI (OVCAR-3 ovarian): > 100 µM | TGI (MOLT-4 leukemia): > 100 µM | TGI (UACC-257 melanoma): > 100 µM | TGI (HL-60(TB) leukemia): > 100 µM

O=C(O)COc1ccc(C(=O)/C(SS/C(C(=O)c2ccc(OCC(=O)O)c(Cl)c2Cl)=C2\C=C(c3ccc(Br)cc3)SS2)=C2/C=C(c3ccc(Br)cc3)SS2)c(Cl)c1Cl
TGI (SK-MEL-5 melanoma): 43.1 µM | TGI (RPMI-8226 leukemia): 18.2 µM | TGI (HOP-62 NSCLC): 54.1 µM | TGI (NCI-H23 lung): 21.3 µM | TGI (OVCAR-3 ovarian): 21.7 µM | TGI (MOLT-4 leukemia): 15 µM | TGI (UACC-257 melanoma): > 67.4 µM | TGI (T-47D breast): 8.61 µM | TGI (HL-60(TB) leukemia): 4.67 µM

C=C1C(=O)O[C@H]2[C@H]1CC/C(CNC(=O)/C=C/c1ccccc1)=C\CC[C@@]1(C)O[C@@H]21
GI50 (SK-MEL-5 melanoma): 1.68 µM | TGI (SK-MEL-5 melanoma): 3.06 µM | GI50 (MDA-MB-231 breast): 1.59 µM | TGI (MDA-MB-231 breast): 3.08 µM | GI50 (RPMI-8226 leukemia): 0.71 µM | TGI (RPMI-8226 leukemia): 3.9 µM | GI50 (HOP-62 NSCLC): 3.37 µM | TGI (HOP-62 NSCLC): 14 µM | GI50 (NCI-H23 lung): 1.73 µM | TGI (NCI-H23 lung): 3.9 µM | GI50 (OVCAR-3 ovarian): 0.558 µM | TGI (OVCAR-3 ovarian): 1.83 µM | GI50 (MOLT-4 leukemia): 1.47 µM | TGI (MOLT-4 leukemia): 5.22 µM | GI50 (UACC-257 melanoma): 1.53 µM | TGI (UACC-257 melanoma): 3.99 µM | GI50 (T-47D breast): 1.44 µM | TGI (T-47D breast): 4.3 µM

O=C(CCc1nc(=S)[nH][nH]1)Nc1cccc(C(F)(F)F)c1
TGI (SK-MEL-5 melanoma): > 100 µM | TGI (RPMI-8226 leukemia): > 100 µM | TGI (HOP-62 NSCLC): > 100 µM | TGI (NCI-H23 lung): > 100 µM | TGI (OVCAR-3 ovarian): > 100 µM | TGI (MOLT-4 leukemia): > 100 µM | TGI (UACC-257 melanoma): > 100 µM | TGI (HL-60(TB) leukemia): > 100 µM

O=C(O)[C@@H](NS(=O)(=O)c1ccc2ccccc2c1)c1ccccc1
TGI (RPMI-8226 leukemia): > 100 µM | TGI (NCI-H23 lung): > 100 µM | TGI (MOLT-4 leukemia): > 100 µM | TGI (UACC-257 melanoma): > 100 µM | TGI (HL-60(TB) leukemia): > 100 µM

CCC1C(=O)OCc2c1cc1n(c2=O)C(CC)c2c-1nc1ccccc1c2Cl (configuration not stated)
TGI (SK-MEL-5 melanoma): 40.5 µM | TGI (RPMI-8226 leukemia): 50 µM | TGI (HOP-62 NSCLC): 87.1 µM | TGI (NCI-H23 lung): > 100 µM | TGI (OVCAR-3 ovarian): 47.5 µM | TGI (MOLT-4 leukemia): > 100 µM | TGI (UACC-257 melanoma): 92.6 µM | TGI (HL-60(TB) leukemia): 57.3 µM

N/C(=N\c1nc2ccccc2s1)NC(=NC1CCCCC1)NC1CCCCC1
GI50 (SK-MEL-5 melanoma): 1.8 µM | TGI (SK-MEL-5 melanoma): 3.21 µM | GI50 (HOP-62 NSCLC): 1.78 µM | TGI (HOP-62 NSCLC): 3.99 µM | GI50 (NCI-H23 lung): 1.75 µM | TGI (NCI-H23 lung): 3.38 µM | GI50 (OVCAR-3 ovarian): 1.68 µM | TGI (OVCAR-3 ovarian): 3.17 µM | GI50 (MOLT-4 leukemia): 1.98 µM | TGI (MOLT-4 leukemia): 5.45 µM | GI50 (UACC-257 melanoma): 1.76 µM | TGI (UACC-257 melanoma): 3.65 µM | GI50 (T-47D breast): 1.84 µM | TGI (T-47D breast): 4.15 µM | GI50 (HL-60(TB) leukemia): 1.83 µM | TGI (HL-60(TB) leukemia): 4.35 µM

COc1cccc(C2C(C#N)=C(N)Oc3c2ccc2ccccc32)c1 (configuration not stated)
GI50 (SK-MEL-5 melanoma): < 0.0185 µM | TGI (SK-MEL-5 melanoma): 0.108 µM | GI50 (MDA-MB-231 breast): 0.0433 µM | TGI (MDA-MB-231 breast): 16.3 µM | GI50 (RPMI-8226 leukemia): < 0.019 µM | TGI (RPMI-8226 leukemia): 3.22 µM | GI50 (HOP-62 NSCLC): 0.0203 µM | TGI (HOP-62 NSCLC): 16.2 µM | GI50 (NCI-H23 lung): 0.026 µM | TGI (NCI-H23 lung): 6.74 µM | GI50 (OVCAR-3 ovarian): < 0.0144 µM | TGI (OVCAR-3 ovarian): 0.0439 µM | GI50 (MOLT-4 leukemia): 0.0409 µM | TGI (MOLT-4 leukemia): 17.8 µM | GI50 (UACC-257 melanoma): 0.901 µM | TGI (UACC-257 melanoma): 32.8 µM | GI50 (HL-60(TB) leukemia): 0.0244 µM | TGI (HL-60(TB) leukemia): 0.0629 µM

Nc1ncnc2c1nnn2C1C=C(CO)C(O)C1O (configuration not stated)
TGI (SK-MEL-5 melanoma): > 100 µM | TGI (RPMI-8226 leukemia): > 62.7 µM | TGI (HOP-62 NSCLC): > 100 µM | TGI (NCI-H23 lung): > 100 µM | TGI (OVCAR-3 ovarian): > 100 µM | TGI (MOLT-4 leukemia): > 100 µM | TGI (UACC-257 melanoma): > 100 µM | TGI (HL-60(TB) leukemia): 28.5 µM

CC1=C(Cl)C[C@@H](/C(C)=C\Cl)O[C@@]1(O)C(Br)Br
TGI (SK-MEL-5 melanoma): 54.9 µM | TGI (MDA-MB-231 breast): 41.7 µM | TGI (RPMI-8226 leukemia): 65.8 µM | TGI (HOP-62 NSCLC): > 100 µM | TGI (NCI-H23 lung): > 100 µM | TGI (OVCAR-3 ovarian): 31.3 µM | TGI (MOLT-4 leukemia): > 100 µM | TGI (UACC-257 melanoma): > 100 µM | TGI (HL-60(TB) leukemia): 38.1 µM

COc1ccc2c(c1)C(=O)c1c-2c(N2CCNCC2)nc2ccccc12
GI50 (SK-MEL-5 melanoma): 11.3 µM | TGI (SK-MEL-5 melanoma): 24.7 µM | GI50 (MDA-MB-231 breast): 3.21 µM | TGI (MDA-MB-231 breast): 11.1 µM | GI50 (RPMI-8226 leukemia): 1.64 µM | TGI (RPMI-8226 leukemia): 3.39 µM | GI50 (OVCAR-3 ovarian): 13 µM | TGI (OVCAR-3 ovarian): 30 µM | GI50 (MOLT-4 leukemia): 0.688 µM | TGI (MOLT-4 leukemia): 3.03 µM | GI50 (UACC-257 melanoma): 2.38 µM | TGI (UACC-257 melanoma): 5.11 µM | GI50 (T-47D breast): 1.96 µM | TGI (T-47D breast): 4.41 µM | GI50 (HL-60(TB) leukemia): 1.8 µM | TGI (HL-60(TB) leukemia): 5.16 µM
